# In patent US20020094522A1, “Means and methods for monitoring non-nucleoside reverse transcriptase inhibitor antiretroviral therapy and guiding therapeutic decisions in the treatment of HIV/AIDS” (priority 2000, published 2002):
# Tests used:
# [1] = system: RTV-1033 (patient sample 98-1033); assay: Phenotypic susceptibility assay, RTV-1033; type: cell-based, HIV-1; conditions: RTV-1033, patient-derived pool
# Method: (§1) Transfections were performed using a calcium-phosphate precipitation procedure. […] Cell lysates were assayed for luciferase activity (FIG. 3).
# (§2) The drug inhibition curves are shown in (FIG. 3).
# A resistance test vector was constructed as described in Example 1 from a patient sample designated 98-1033. […] Isolation of viral RNA and RT/PCR was used to generate a patient derived segment that comprised viral sequences coding for all of PR and aa 1-313 of RT. The PDS was inserted into an indicator gene viral vector to generate resistance test vectors designated RTV-1033 and RTV-757. RTV-1033 and RTV-757 were then tested in a phenotypic assay to determine accurately and quantitatively the level of susceptibility to a panel of anti-retroviral drugs. […] An IC50 was determined for the resistance test vector pool for each drug tested. The pattern of susceptibility to all of the drugs tested was examined and compared to known patterns of susceptibility.
# [2] = system: RTV-1060 (patient sample 98-1060); assay: Phenotypic susceptibility assay, RTV-1060; type: cell-based, HIV-1; conditions: RTV-1060, patient-derived pool
# Method: as §1, §2
# This patient had been previously treated with d4T […] , indinavir (a PRI and efavirenz (an NNRTI). A second resistance test vector was constructed as described in Example 1 from a patient sample designated 98-1060. This patient had been previously treated with d4T […]. indinavir (a PRI) and efavirnez (an NNRTI). Isolation of viral RNA and RT/PCR was used to generate a patient derived segment that comprised viral sequences coding for all of PR and aa 1-313 of RT. The PDS was inserted into an indicator gene viral vector to generate resistance test vectors designated RTV-644 and RTV-1060. RTV-644 and RTV-1060 were then tested in a phenotypic assay to determine accurately and quantitatively the level of susceptibility to a panel of anti-retroviral drugs. […] An IC50 was determined for the resistance test vector pool for each drug tested. The pattern of susceptiblity to all of the drugs tested was examined and compared to known patterns of susceptibility.
# A98G-G190S-RTV = assay: Phenotypic susceptibility assay, A98G-G190S-RTV; type: cell-based, HIV-1; conditions: values <1 = increased susceptibility
# Text: (§3) The resistance test vectors containing a functional luciferase gene cassette were constructed and host cells were transfected with the resistance test vector DNA. The resistant test vectors contained patient-derived reverse transcriptase and protease sequences that were either susceptible or resistant to the antiretroviral agents, such as nucleoside reverse transcriptase inhibitors, non-nucleoside reverse transcriptase inhibitors and protease inhibitors. The resistance test vector viral particles produced by transfecting the resistance test vector DNA into host cells, either in the presence or absence of protease inhibitors, were used to infect target host cells grown either in the absence of NRTI or NNRTI or in the presence of increasing concentrations of the drug. The amount of luciferase activity produced in infected target host cells in the presence of drug was compared to the amount of luciferase produced in infected target host cells in the absence of drug. Drug resistance was measured as the amount of drug required to inhibit by 50% the luciferase activity detected in the absence of drug (inhibitory concentration 50%, IC50). The IC50 values were determined by plotting percent drug inhibition vs. log10 drug concentration.
# (§4) Host cells were seeded in 10-cm-diameter dishes and were transfected several days after plating with resistance test vector plasmid DNA and the envelope expression vector. Transfections were performed using a calcium-phosphate precipitation procedure. The cell culture media containing the DNA precipitate was replaced with fresh medium, from one to 24 hours, after transfection. Cell culture media containing resistance test vector viral particles was harvested one to four days after transfection and was passed through a […] filter before being stored at −80° C. HIV capsid protein (p24) levels in the harvested cell culture media were determined by an EIA method as described by the manufacturer (SIAC; Frederick, Md.). […] The inhibitory effect of the drug was determined using the following equation: […]
# [3] = system: RTV-B clone 1 (patient sample B); assay: Phenotypic susceptibility assay, RTV-B clone 1; type: cell-based, HIV-1; conditions: values <1 = increased susceptibility
# Text: as §3, §4
# V106A-V189L-RTV = assay: Phenotypic susceptibility assay, V106A-V189L-RTV; type: cell-based, HIV-1; conditions: site directed mutant
# Text: as §3, §4
# [4] = system: V106A-RTV (HIV reverse transcriptase V106A); assay: Phenotypic susceptibility assay, V106A-RTV; type: cell-based, HIV-1; conditions: site directed mutant
# Text: as §3, §4
# V106A-Y181C-F227L-RTV = assay: Phenotypic susceptibility assay, V106A-Y181C-F227L-RTV; type: cell-based, HIV-1; conditions: site directed mutant
# Text: as §3, §4
# [5] = system: Y181I-RTV (HIV reverse transcriptase Y181I)
# Text: as §3
# as §4, with “Md.). Before infection, target cells (293 and 293/T) were plated in cell culture media. Control infections were performed using cell culture media from mock transfections (no DNA) or transfections containing the resistance test vector plasmid DNA without the envelope expression plasmid. One to three or more days after infection the media was removed and cell lysis buffer (Promega) was added to each well.” for “Md.).”
# (§5) where RLUluc [drug] is the relative light unit of luciferase activity in infected cells in the presence of drug and RLUluc is the Relative Light Unit of luciferase activity in infected cells in the absence of drug. IC50 values were obtained from the sigmoidal curves that were generated from the data by plotting the percent inhibition of luciferase activity vs. the log10 drug concentration.
# [6] = system: K101E-RTV (HIV reverse transcriptase K101E); assay: Phenotypic susceptibility assay, K101E-RTV; type: cell-based, HIV-1
# Text: as §3
# as §4, with “Md.). Before infection, target cells (293 and 293/T) were plated in cell culture media. Control infections were performed using cell culture media from mock transfections (no DNA) or transfections containing the resistance test vector plasmid DNA without the envelope expression plasmid. One to three or more days after infection the media was removed and cell lysis buffer (Promega) was added to each well.” for “Md.).”
# as §5
# The K101E and G190S mutations were introduced alone and in combination into resistance test vectors using the mega-primer method for site-directed mutagenesis (Sakar and Sommar, Ibid.). Resistance test vectors containing the K101E mutation (K101E-RTV), the G190S mutation (G190S-RTV) were then tested using the phenotypic assay described earlier and the results were compared to those determined using a genetically defined resistance test vector that was wild type at positions 101 and 190. […]
# V106A-F227-RTV = assay: Phenotypic susceptibility assay, V106A-F227-RTV; type: cell-based, HIV-1; conditions: site directed mutant
# Text: as §3, §4
# [7] = printed in the K101E-RTV sentence of b302, second set of values
SMILES,fold decrease in susceptibility (IC50) [1],fold decrease in susceptibility (IC50) [2],fold change in susceptibility compared to wild type control RTV (A98G-G190S-RTV),fold change in susceptibility (IC50) [3] [fold],fold loss of susceptibility compared to wild type control RTV (V106A-V189L-RTV) [fold],fold loss of susceptibility compared to wild type control RTV [4] [fold],fold loss of susceptibility compared to wild type control RTV (V106A-Y181C-F227L-RTV),fold loss of susceptibility compared to wild type control RTV [5] [fold],fold loss of susceptibility compared to wild type control RTV ([6]; {}) [fold],fold loss of susceptibility compared to wild type control RTV (V106A-F227-RTV),"fold loss of susceptibility compared to wild type control RTV [6, 7] [fold]"
CC(C)Nc1cccnc1N1CCN(C(=O)c2cc3cc(NS(C)(=O)=O)ccc3[nH]2)CC1 [delavirdine],30 fold,1.5 fold,0.8 fold,0.55,3,5,50 fold,20,5,3 fold,
O=C1Nc2ccc(Cl)cc2[C@@](C#CC2CC2)(C(F)(F)F)O1 [efavirenz],200 fold,900 fold,greater than 250 fold,250,1,1.7,12 fold,1.4,5,8 fold,30
Cc1ccnc2c1NC(=O)c1cccnc1N2C1CC1 [nevirapine],greater than 800 fold,greater than 800 fold,greater than 800 fold,640,50,60,greater than 800 fold,740,12,greater than 800 fold,55
